Experimental findings from ChEMBL document CHEMBL6109092, “Anti-HBV activity of (R)-gentiandiol, a metabolite of Swertiamarin, in transgenic mice: Insights from non-targeted serum metabolomics” (Bioorg Med Chem, 2025) are described below.

SMILES strings stand for the structures. Active and inactive are the calls of the source. The rule behind the calls is not given here.

What all share (format): functional, organism-based
Experiment [1] deals with Hepatitis B virus. The experiment is described as follows: In vivo antiviral activity against HBV infected in male C57BL/6NCrl mouse assessed as reduction in HBeAg level at 6 mg/kg administered via tail vein measured after 8 weeks by ELISA. Background: ELISA stands for enzyme-linked immunosorbent assay.
The subject of experiment [2] is Hepatitis B virus. In words: In vivo antiviral activity against HBV infected in male C57BL/6NCrl mouse assessed as reduction in HBsAg level at 6 mg/kg administered via tail vein measured after 8 weeks by ELISA.
Experiment [3] deals with Hepatitis B virus. In words: In vivo antiviral activity against HBV infected in male C57BL/6NCrl mouse assessed as reduction in HBV-DNA level at 6 mg/kg administered via tail vein measured after 8 weeks by ELISA.
For experiment [4], the system named is Hepatitis B virus. The experiment is described as follows: In vivo antiviral activity against HBV infected in male C57BL/6NCrl mouse assessed as reduction in HBsAg level at 0.065 mg/kg, IG measured after 8 weeks by ELISA.
Experiment [5] has as its system Hepatitis B virus. The experiment is described as follows: In vivo antiviral activity against HBV infected in male C57BL/6NCrl mouse assessed as reduction in HBV-DNA level at 0.065 mg/kg, IG measured after 8 weeks by ELISA.
In experiment [6] the test system is Hepatitis B virus. In words: In vivo antiviral activity against HBV infected in male C57BL/6NCrl mouse assessed as reduction in HBeAg level at 0.065 mg/kg, IG measured after 8 weeks by ELISA.
In experiment [7] the test system is Mus musculus. In words: Reversal of phenylalanine level in HBV infected male C57BL/6NCrl mouse serum at 0.026 mg/kg, IG by UPLC-Q/TOF-MS analysis.
For experiment [8], the system named is Hepatitis B virus. The experiment is described as follows: In vivo antiviral activity against HBV infected in male C57BL/6NCrl mouse assessed as reduction in HBeAg level at 0.026 g/Kg, IG measured after 8 weeks by ELISA.
The test system of experiment [9] is Hepatitis B virus. In words: In vivo antiviral activity against HBV infected in male C57BL/6NCrl mouse assessed as reduction in HBV-DNA level at 0.026 g/Kg, IG measured after 8 weeks by ELISA.
Experiment [10] concerns Hepatitis B virus. In words: In vivo antiviral activity against HBV infected in male C57BL/6NCrl mouse assessed as reduction in HBsAg level at 0.026 g/Kg, IG measured after 8 weeks by ELISA.
Experiment [11] concerns Mus musculus. In words: Reversal of citric acid level in HBV infected male C57BL/6NCrl mouse serum at 0.026 mg/kg, IG by UPLC-Q/TOF-MS analysis.
The subject of experiment [12] is Mus musculus. The experiment is described as follows: Reversal of arachidonic acid level in HBV infected male C57BL/6NCrl mouse serum at 0.026 mg/kg, IG by UPLC-Q/TOF-MS analysis.
Experiment [13] has as its system Mus musculus. In words: Reversal of tyrosine in HBV infected male C57BL/6NCrl mouse serum at 0.026 mg/kg, IG by UPLC-Q/TOF-MS analysis.
Experiment [14] concerns Hepatitis B virus. In words: In vivo antiviral activity against HBV infected in male C57BL/6NCrl mouse assessed as reduction in HBeAg level at 1.5 mg/kg administered via tail vein measured after 8 weeks by ELISA.
The subject of experiment [15] is Hepatitis B virus. In words: In vivo antiviral activity against HBV infected in male C57BL/6NCrl mouse assessed as reduction in HBV-DNA level at 1.5 mg/kg administered via tail vein measured after 8 weeks by ELISA.
For experiment [16], the system named is Hepatitis B virus. The experiment is described as follows: In vivo antiviral activity against HBV infected in male C57BL/6NCrl mouse assessed as reduction in HBV-DNA level administered via tail vein measured after 8 weeks by ELISA. As to conditions: dose 1.5-6 mg/kg.
Experiment [17] concerns Mus musculus. In words: Reversal of tyrosine in HBV infected male C57BL/6NCrl mouse serum at 50 to 150 mg/kg, administered via tail vein by UPLC-Q/TOF-MS analysis. To be noted: dose 50-150 mg/kg.
Experiment [18] relates to Mus musculus. In words: Reversal of phenylalanine level in HBV infected male C57BL/6NCrl mouse serum at 50 to 150 mg/kg, administered via tail vein by UPLC-Q/TOF-MS analysis. As to conditions: dose 50-150 mg/kg.
Experiment [19] relates to Mus musculus. The experiment is described as follows: Reversal of citric acid level in HBV infected male C57BL/6NCrl mouse serum at 50 to 150 mg/kg, administered via tail vein by UPLC-Q/TOF-MS analysis. To be noted: dose 50-150 mg/kg.
For experiment [20], the system named is Hepatitis B virus. The experiment is described as follows: In vivo antiviral activity against HBV infected in male C57BL/6NCrl mouse assessed as reduction in HBeAg level at 3 mg/kg administered via tail vein measured after 8 weeks by ELISA.
For experiment [21], the system named is Mus musculus. The experiment is described as follows: Reversal of arachidonic acid level in HBV infected male C57BL/6NCrl mouse serum at 50 to 150 mg/kg, administered via tail vein by UPLC-Q/TOF-MS analysis. As to conditions: dose 50-150 mg/kg.
The test system of experiment [22] is Hepatitis B virus. The experiment is described as follows: In vivo antiviral activity against HBV infected in male C57BL/6NCrl mouse assessed as reduction in HBsAg level at 1.5 mg/kg administered via tail vein measured after 8 weeks by ELISA.
Experiment [23] has as its system Hepatitis B virus. In words: In vivo antiviral activity against HBV infected in male C57BL/6NCrl mouse assessed as reduction in HBsAg level at 3 mg/kg administered via tail vein measured after 8 weeks by ELISA.
Experiment [24] concerns Mus musculus. The experiment is described as follows: Reduction in taurocholic acid in HBV infected male C57BL/6NCrl mouse serum at 50 to 150 mg/kg, administered via tail vein by UPLC-Q/TOF-MS analysis. As to conditions: dose 50-150 mg/kg.
For experiment [25], the system named is Hepatitis B virus. In words: In vivo antiviral activity against HBV infected in male C57BL/6NCrl mouse assessed as reduction in HBV-DNA level at 3 mg/kg administered via tail vein measured after 8 weeks by ELISA.

In the case of `O=C1OCCc2c1cncc2[C@H](O)CO`, the result with Hepatitis B virus [1], with Hepatitis B virus [2] and in the experiment on Hepatitis B virus [3] was inactive.
Take `C=C1[C@H](CO)[C@@H](O)C[C@@H]1n1cnc2c(=O)[nH]c(N)nc21`: the outcome in the experiment with Hepatitis B virus [4], in the experiment on Hepatitis B virus [5] and with Hepatitis B virus [6] was Active.
In the case of `C=C[C@H]1[C@H](O[C@@H]2O[C@H](CO)[C@@H](O)[C@H](O)[C@H]2O)OC=C2C(=O)OCC[C@]21O`, the outcome in the experiment with Mus musculus [7], in the experiment on Hepatitis B virus [8], with Hepatitis B virus [9], in the experiment with Hepatitis B virus [10], in the experiment with Mus musculus [11] and in the experiment with Mus musculus [12] was Active. In addition, the outcome in the experiment on Mus musculus [13] was Active.
Turning to `O=C1OCCc2c1cncc2[C@@H](O)CO`, the outcome in the experiment on Hepatitis B virus [1], with Hepatitis B virus [14], with Hepatitis B virus [2], in the experiment on Hepatitis B virus [15], in the experiment with Mus musculus [17] and with Mus musculus [18] was Active. For the same compound, the result with Mus musculus [19], in the experiment on Hepatitis B virus [20], in the experiment on Mus musculus [21], in the experiment on Hepatitis B virus [22], in the experiment on Hepatitis B virus [23] and in the experiment on Hepatitis B virus [3] was Active. Also, the outcome in the experiment with Mus musculus [24] and in the experiment on Hepatitis B virus [25] was Active. Further, the Activity result with Hepatitis B virus [16] was “Dose-dependent-effect”.
